The series can be described thus: Varying temperature (VT)-XRPD. The series is classed as physicochemical. As to conditions: heating 25 to 250° C. (ethanolamine salt to 300° C.). As to the method: Varying temperature (VT)-XRPD was carried out between 25-250° C.
VT-XRPD of HBI-3808 sodium salt of Pattern 5 was carried out between 25-250° C. (FIG. 5M). […] At 150° C., the diffractogram changed and was labelled as Pattern 7, indicating formation of HBI-3808 sodium salt of Pattern 7 (see Example 7). Diffractogram of Pattern 7, was observed between 150-250° C. Upon cooling to 25° C., Diffractogram of Pattern 5 was observed again, indicating reformation of HBI-3808 sodium salt of Pattern 5. Pattern 7 has some similarities with Pattern 6 (See Example 6). Both Patterns 6 and 7 may represent anhydrous forms of the HBI-3808 sodium salt. Starting concentration of the of HBI-3808 sodium salt of Pattern 5.
VT-XRPD was carried out according to the temperature program of Table 17B. […] At 210° C., the XRPD diffractogram was consistent with poorly crystalline BBI-3808 free acid of Pattern 1. Free acid (HBI-3808) of Pattern 1 was observed between 210-240° C.

Take `CC1CCC2(C(=O)[O-])CCC3(C)C(=CCC4C5(C)CC(O)C(O)C(C)(CO)C5CCC43C)C2C1(C)O.[Na+]` (stereo not shown) [HBI-3808 sodium salt of Pattern 5, sodium salt of 23-hydroxytormentic acid]: the “temperature range in which diffractograms consistent with the input salt were observed” value was 25-115 °C.

Source of the values: patent publication US20250326785A1, “SODIUM SALT AND ETHANOLAMINE SALT OF 23-HYDROXYTORMENTIC ACID” (HUYABIO International, LLC, priority 2024, published 2025).
